Results: PubChem BioAssay AID328 (DTP/NCI, 2004)
“And” between values parts separate entries of the source, which are not always exact repeats. Equal entries are not always repeated. Inconclusive results and toxic doses are left out.

Test system: BDF1 mice, P388 leukemia ip, median survival T/C
Assay: NCI In Vivo Anticancer Drug Screen. Data for tumor model P388 Leukemia (intraperitoneal) in B6D2F1 (BDF1) mice
Conditions: endpoint: median survival time, higher = longer survival
Procedure, shortened: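 Compound-treated tumour-bearing mice were compared with vehicle-treated controls. Survival was recorded, and the value is the treated-group measurement divided by the control-group measurement (T/C).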

[1] = dose: 25.0 mg/kg/injection, schedule: Q01DX009 (ip), vehicle: Klucel (hydroxypropylcellulose) (HPC)
[2] = dose: 100.0 mg/kg/injection, schedule: Q04DX003 (ip), vehicle: Klucel (hydroxypropylcellulose) (HPC)
[3] = dose: 25.0 mg/kg/injection, schedule: Q01DX009 (ip), vehicle: saline with Tween-80
[4] = dose: 50.0 mg/kg/injection, schedule: Q01DX009 (ip), vehicle: saline with Tween-80
[5] = dose: 100.0 mg/kg/injection, schedule: Q01DX009 (ip), vehicle: saline with Tween-80
[6] = dose: 100.0 mg/kg/injection, schedule: Q01DX009 (ip), vehicle: water
[7] = dose: 100.0 mg/kg/injection, schedule: Q04DX003 (ip), vehicle: water
[8] = dose: 200.0 mg/kg/injection, schedule: Q01DX009 (ip), vehicle: water
[9] = dose: 200.0 mg/kg/injection, schedule: Q04DX003 (ip), vehicle: water
[10] = dose: 400.0 mg/kg/injection, schedule: Q04DX003 (ip), vehicle: water
[11] = dose: 100.0 mg/kg/injection, schedule: Q04DX003 (ip), vehicle: saline
[12] = dose: 200.0 mg/kg/injection, schedule: Q01DX009 (ip), vehicle: saline with Tween-80
[13] = dose: 50.0 mg/kg/injection, schedule: Q01DX010 (ip), vehicle: carboxymethylcellulose (CMC)
[14] = dose: 100.0 mg/kg/injection, schedule: Q01DX010 (ip), vehicle: carboxymethylcellulose (CMC)
[15] = dose: 100.0 mg/kg/injection, schedule: Q01DX001 (ip), vehicle: saline with Tween-80
[16] = dose: 400.0 mg/kg/injection, schedule: Q01DX001 (ip), vehicle: saline with Tween-80

`CNC(=N)c1ccc(NC(=N)c2ccc(NC(=O)Nc3ccc(NC(=O)Nc4ccc(C(=N)Nc5ccc(C(=N)NC)cc5)cc4)cc3)cc2)cc1` was tested, and the T/C (dose: 4.0 mg/kg/injection, schedule: Q04DX003 (ip), vehicle: Klucel (hydroxypropylcellulose) (HPC)) was 154 % of control, the T/C (dose: 6.0 mg/kg/injection, schedule: Q04DX003 (ip), vehicle: Klucel (hydroxypropylcellulose) (HPC)) was 150 % of control and 154 % of control and the T/C (dose: 7.0 mg/kg/injection, schedule: Q01DX009 (ip), vehicle: Klucel (hydroxypropylcellulose) (HPC)) was 161 % of control. The T/C (dose: 9.0 mg/kg/injection, schedule: Q04DX003 (ip), vehicle: Klucel (hydroxypropylcellulose) (HPC)) was 159 % of control, the T/C (dose: 11.0 mg/kg/injection, schedule: Q01DX009 (ip), vehicle: Klucel (hydroxypropylcellulose) (HPC)) was 150 % of control and the T/C (dose: 13.0 mg/kg/injection, schedule: Q04DX003 (ip), vehicle: Klucel (hydroxypropylcellulose) (HPC)) was 176 % of control and 177 % of control. The T/C (dose: 16.5 mg/kg/injection, schedule: Q01DX009 (ip), vehicle: Klucel (hydroxypropylcellulose) (HPC)) was 192 % of control, the T/C (dose: 20.0 mg/kg/injection, schedule: Q04DX003 (ip), vehicle: Klucel (hydroxypropylcellulose) (HPC)) was 153 % of control and the T/C [1] was 231 % of control. The T/C (dose: 30.0 mg/kg/injection, schedule: Q04DX003 (ip), vehicle: Klucel (hydroxypropylcellulose) (HPC)) was 176 % of control, the T/C (dose: 44.0 mg/kg/injection, schedule: Q04DX003 (ip), vehicle: Klucel (hydroxypropylcellulose) (HPC)) was 160 % of control and 207 % of control and the T/C (dose: 67.0 mg/kg/injection, schedule: Q04DX003 (ip), vehicle: Klucel (hydroxypropylcellulose) (HPC)) was 173 % of control and 207 % of control. For the same molecule, the T/C [2] was 230 % of control (2×) and 156 % of control and the T/C (dose: 150.0 mg/kg/injection, schedule: Q04DX003 (ip), vehicle: Klucel (hydroxypropylcellulose) (HPC)) was 160 % of control and 211 % of control.

In the case of `C[Si]1(C)CCCSC1`, the T/C (dose: 12.5 mg/kg/injection, schedule: Q01DX009 (ip), vehicle: saline with Tween-80) is reported as 89 % of control, the T/C [3] is reported as 91 % of control and the T/C [4] is reported as 93 % of control. The T/C [5] was 103 % of control.

In the case of `CCOC(=O)c1c[nH]c2cc(Cl)ccc2c1=O`, the T/C (dose: 75.0 mg/kg/injection, schedule: Q04DX003 (ip), vehicle: Klucel (hydroxypropylcellulose) (HPC)) is reported as 96 % of control.

For `O=C1CC(c2c[nH]c3nccnc23)NN1` (configuration not stated), the T/C (dose: 12.5 mg/kg/injection, schedule: Q01DX009 (ip), vehicle: water) was 100 % of control, the T/C (dose: 25.0 mg/kg/injection, schedule: Q01DX009 (ip), vehicle: water) was 101 % of control and the T/C (dose: 25.0 mg/kg/injection, schedule: Q04DX003 (ip), vehicle: water) was 104 % of control. The T/C (dose: 50.0 mg/kg/injection, schedule: Q01DX009 (ip), vehicle: water) was 110 % of control, the T/C (dose: 50.0 mg/kg/injection, schedule: Q04DX003 (ip), vehicle: water) was 100 % of control and the T/C [6] was 100 % of control. The T/C [7] was 95 % of control, the T/C [8] was 103 % of control and the T/C [9] was 104 % of control. For the same molecule, the T/C (dose: 300.0 mg/kg/injection, schedule: Q01DX009 (ip), vehicle: water) was 103 % of control and the T/C [10] was 100 % of control.

With `CC[C@H](CC[C@@H](C)[C@H]1CC[C@H]2[C@@H]3CC=C4C[C@@H](O)CC[C@]4(C)[C@H]3CC[C@]12C)C(C)C` the T/C [2] was 100 % of control, the T/C (dose: 200.0 mg/kg/injection, schedule: Q04DX003 (ip), vehicle: Klucel (hydroxypropylcellulose) (HPC)) was 86 % of control and the T/C (dose: 400.0 mg/kg/injection, schedule: Q04DX003 (ip), vehicle: Klucel (hydroxypropylcellulose) (HPC)) was 100 % of control.

`CCN(CC)C(=O)Cn1cc(F)c(NC(C)=O)nc1=O` was tested, and the T/C [5] was 90 % of control, the T/C [11] was 95 % of control and the T/C [12] was 105 % of control. For the same molecule, the T/C (dose: 200.0 mg/kg/injection, schedule: Q04DX003 (ip), vehicle: saline) was 109 % of control, the T/C (dose: 400.0 mg/kg/injection, schedule: Q01DX009 (ip), vehicle: saline with Tween-80) was 110 % of control and the T/C (dose: 400.0 mg/kg/injection, schedule: Q04DX003 (ip), vehicle: saline) was 113 % of control.

For `NC(Cc1nn[nH]n1)C(=O)O` (configuration not stated), the T/C [6] was 100 % of control, the T/C [7] was 97 % of control and the T/C [8] was 94 % of control. The T/C [9] was 96 % of control, the T/C (dose: 400.0 mg/kg/injection, schedule: Q01DX009 (ip), vehicle: water) was 94 % of control and the T/C [10] was 90 % of control.

With `CC(C)=CCOc1ccc2ccc(=O)oc2c1` the T/C (dose: 4.0 mg/kg/injection, schedule: Q01DX009 (ip), vehicle: Klucel (hydroxypropylcellulose) (HPC)) was 100 % of control, the T/C (dose: 8.0 mg/kg/injection, schedule: Q01DX009 (ip), vehicle: Klucel (hydroxypropylcellulose) (HPC)) was 98 % of control and the T/C (dose: 16.0 mg/kg/injection, schedule: Q01DX009 (ip), vehicle: Klucel (hydroxypropylcellulose) (HPC)) was 108 % of control. The T/C (dose: 32.0 mg/kg/injection, schedule: Q01DX009 (ip), vehicle: Klucel (hydroxypropylcellulose) (HPC)) was 90 % of control.

`COc1ccc(/C=C/C(=O)c2ccc(Cl)cc2)c(OC)c1` was tested, and the T/C [3] was 95 % of control, the T/C [4] was 100 % of control and the T/C [5] was 109 % of control. For the same molecule, the T/C (dose: 100.0 mg/kg/injection, schedule: Q04DX003 (ip), vehicle: saline with Tween-80) was 109 % of control, the T/C [12] was 100 % of control and the T/C (dose: 200.0 mg/kg/injection, schedule: Q04DX003 (ip), vehicle: saline with Tween-80) was 95 % of control. The T/C (dose: 400.0 mg/kg/injection, schedule: Q04DX003 (ip), vehicle: saline with Tween-80) was 90 % of control.

For `O=C(Nc1cc(Cl)cc(Cl)c1)C(Cl)Cl`, the T/C [13] was 95 % of control, the T/C [14] was 110 % of control and the T/C (dose: 200.0 mg/kg/injection, schedule: Q01DX010 (ip), vehicle: carboxymethylcellulose (CMC)) was 105 % of control.

For `CC1CCC2N(C1)CC1C(C(O)C(O)C3(O)C1CC14OC5(O)C(O)CCC1(C)C5CC(O)C34)C2(C)O` (configuration not stated), the T/C (dose: 25.0 mg/kg/injection, schedule: Q01DX010 (ip), vehicle: carboxymethylcellulose (CMC)) was 100 % of control, the T/C [13] was 115 % of control and the T/C [14] was 110 % of control.

In the case of `CC(C)c1ccc(O)c(=O)cc1`, the T/C (dose: 40.0 mg/kg/injection, schedule: Q01DX010 (ip), vehicle: carboxymethylcellulose (CMC)) is reported as 95 % of control, the T/C (dose: 80.0 mg/kg/injection, schedule: Q01DX010 (ip), vehicle: carboxymethylcellulose (CMC)) is reported as 100 % of control and the T/C (dose: 160.0 mg/kg/injection, schedule: Q01DX010 (ip), vehicle: carboxymethylcellulose (CMC)) is reported as 100 % of control.

In the case of `CC(C)CCCC(=O)CCCCCCC(=O)CCN(O)C(=O)C(N)CO` (configuration not stated), the T/C (dose: 6.25 mg/kg/injection, schedule: Q01DX009 (ip), vehicle: Klucel (hydroxypropylcellulose) (HPC)) is reported as 98 % of control, the T/C (dose: 12.5 mg/kg/injection, schedule: Q01DX009 (ip), vehicle: Klucel (hydroxypropylcellulose) (HPC)) is reported as 94 % of control and the T/C [1] is reported as 94 % of control.

In the case of `COc1ccc(C(=O)CC(C#N)c2ccc(OC)cc2)cc1` (configuration not stated), the T/C [4] is reported as 106 % of control, the T/C [5] is reported as 106 % of control and the T/C [12] is reported as 101 % of control.

For `CC(=O)NC(N)=O`, the T/C [15] was 100 % of control, the T/C (dose: 200.0 mg/kg/injection, schedule: Q01DX001 (ip), vehicle: saline with Tween-80) was 100 % of control and the T/C [16] was 109 % of control.

`CN(C)c1ccc(Nc2c3ccccc3nc3ccccc23)cc1` was tested, and the T/C (dose: 36.0 mg/kg/injection, schedule: Q01DX010 (ip), vehicle: saline) was 159 % of control and 172 % of control, the T/C (dose: 54.0 mg/kg/injection, schedule: Q01DX010 (ip), vehicle: saline) was 159 % of control and 172 % of control and the T/C (dose: 80.0 mg/kg/injection, schedule: Q01DX010 (ip), vehicle: saline) was 213 % of control and 218 % of control. For the same molecule, the T/C (dose: 120.0 mg/kg/injection, schedule: Q01DX010 (ip), vehicle: saline) was 268 % of control.

`CSc1cc(C(N)=O)c2c(N)nc(SC)nc2n1` was tested, and the T/C (dose: 25.0 mg/kg/injection, schedule: Q01DX001 (ip), vehicle: saline with Tween-80) was 111 % of control, the T/C (dose: 50.0 mg/kg/injection, schedule: Q01DX001 (ip), vehicle: saline with Tween-80) was 109 % of control and the T/C [15] was 100 % of control and 111 % of control. The T/C [16] was 100 % of control.

For `Cc1ccc(S(=O)(=O)O)cc1`, the T/C (dose: 25.0 mg/kg/injection, schedule: Q01DX009 (ip), vehicle: saline) was 91 % of control, the T/C (dose: 50.0 mg/kg/injection, schedule: Q01DX009 (ip), vehicle: saline) was 91 % of control and the T/C (dose: 50.0 mg/kg/injection, schedule: Q04DX003 (ip), vehicle: saline) was 100 % of control. The T/C (dose: 100.0 mg/kg/injection, schedule: Q01DX009 (ip), vehicle: saline) was 108 % of control and the T/C [11] was 95 % of control.
